Laboratory results taken from patent publication US7022690B2, “Carboxylic acid substituted heterocycles, derivatives thereof and methods of use” (Amgen Inc., priority 1997, dated 2006).

Legend:
[1] = biological target: Human fibroblast stromelysin (HFS) (Homo sapiens, UniProt P08254); experiment: biochemical
Description: Human Fibroblast Stromelysin Assay
Human fibroblast stromelysin (HFS) activity is determined by using fluorogenic peptide substrate Dnp-Pro-b-Cyclohexyl-Ala-Gly-Cys(Me)-His-Ala-Lys-(N-methylanthranilic acid)-NH2. The N-terminus Dnp group and the C-terminus N-methyl-anthranilyl moiety (Nma) are fluorescence self-quenching until the peptide is cleaved at the Gly-Cys(me) bond. The fluorescence from the cleavage products is measured on a Bio-Tek Instrument FL500 fluorescence micro-plate reader (excitation at 360 nm, emission at 460 nm).

[2] = biological target: Human neutrophil collagenase (HNC) (Homo sapiens, UniProt P22894); experiment: Human Neutrophil Collagenase Assay; assay type: biochemical; conditions: fluorogenic peptide substrate, 96-well plate in duplicate; reference inhibitor
Chain of Human neutrophil collagenase (HNC) (P22894 101-467): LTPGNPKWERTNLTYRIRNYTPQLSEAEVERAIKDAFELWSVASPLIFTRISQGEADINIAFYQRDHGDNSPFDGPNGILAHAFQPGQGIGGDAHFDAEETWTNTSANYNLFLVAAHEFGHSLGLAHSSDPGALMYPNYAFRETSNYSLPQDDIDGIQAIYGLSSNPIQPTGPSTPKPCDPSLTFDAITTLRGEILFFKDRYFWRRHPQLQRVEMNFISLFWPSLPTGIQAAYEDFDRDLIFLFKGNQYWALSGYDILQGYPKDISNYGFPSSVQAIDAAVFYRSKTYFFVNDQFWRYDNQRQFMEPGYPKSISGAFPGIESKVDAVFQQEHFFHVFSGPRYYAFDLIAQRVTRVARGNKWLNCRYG
Description: Human neutrophil collagenase (HNC) activity is determined by using fluorogenic peptide substrate Dnp-Pro-b-Cyclohexyl-Ala-Gly-Cys(Me)-His-Ala-Lys-(N-methylanthranilic acid)-NH2. The N-terminus Dnp group and the C-terminus N-methyl-anthranilyl moiety (Nma) are fluorescence self-quenching until the peptide is cleaved at the Gly-Cys(me) bond. The fluorescence from the cleavage products is measured on a Bio-Tek Instrument FL500 fluorescence micro-plate reader (excitation at 360 nm, emission at 460 nm).

Chain of Human fibroblast stromelysin (HFS) (P08254 100-477): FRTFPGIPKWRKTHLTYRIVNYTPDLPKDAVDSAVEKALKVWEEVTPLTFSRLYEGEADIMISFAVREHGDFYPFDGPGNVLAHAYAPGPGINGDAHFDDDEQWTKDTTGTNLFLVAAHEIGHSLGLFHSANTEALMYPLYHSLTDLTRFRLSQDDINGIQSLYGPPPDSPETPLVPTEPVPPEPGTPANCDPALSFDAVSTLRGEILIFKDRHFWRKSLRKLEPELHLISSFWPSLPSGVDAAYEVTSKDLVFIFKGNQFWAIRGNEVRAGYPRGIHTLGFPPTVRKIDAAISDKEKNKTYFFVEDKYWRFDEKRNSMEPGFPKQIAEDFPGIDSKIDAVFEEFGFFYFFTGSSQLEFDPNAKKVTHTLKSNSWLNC

SMILES: CCCCC[C@H](CC(=O)NO)C(=O)N[C@H](C(=O)N1CCC[C@H]1CO)C(C)C [Actinonin]
- Ki [1]: 722 nM
- Ki [2]: 722 nM
